Experimental data taken from patent US9963703B2, “Compositions and methods for treating pancreatic cancer” (Autotelic LLC, priority 2016, dated 2018).
In the oligonucleotide strings, read from the 5' end, every base follows the letter of its sugar. An asterisk marks phosphorothioate; unmarked linkages are phosphodiester. Other units and linkages are bracketed, terminal groups are in braces. A string of capitals states the bases alone. d = 2'-deoxy (DNA)

Experiment: Acute single dose toxicity study in mice
Format: in vivo
Conditions: 1 of 10 mice died (LLD10)
Experimental: The clinical starting dose for the 7-days-on and 7-days-off schedule was based on the Lowest-Observed-Adverse-Effect-Level (LOAEL) devoid of severe toxicity in Cynomolgus monkeys as the most relevant species. This LOAEL of 4 mg/kg body weight (b.w.)/day is equivalent to approximately 1.3 mg/kg b.w./day or 48 mg/m^2/day on a body surface area basis in human adults. These numbers were rounded down and the safe starting dose was defined at 40 mg/m^2/day, equivalent to approximately 1 mg/kg b.w./day in humans. An alternative approach would have been based on the lowest lethal dose (LLD) of 300 mg/kg b.w. obtained in the acute single dose toxicity study in mice (in rats it was determined at 1000 mg/kg), at which 1 of 10 mice died (LLD10). According to the standard method, 10% of this dose (30 mg/kg) on a body surface area basis would then be defined as the clinical starting dose resulting in 90 mg/m^2/day. In the end, the lower of the two alternatives was chosen as starting dose.

trabedersen: TGF-beta2 specific phosphorothioate antisense oligodeoxynucleotide with the sequence 5′-CGGCATGTCTATTTTGTA-3′ (SEQ ID No: 1) (antisense dC*dG*dG*dC*dA*dT*dG*dT*dC*dT*dA*dT*dT*dT*dT*dG*dT*dA)
lowest lethal dose (LLD): 300 mg/kg b.w.
